# According to patent US10688093B2, “Methods, compositions, and uses of novel Fyn kinase inhibitors” (priority 2015, dated 2020):
# Molecular target: full-length recombinant human FYN A (Homo sapiens (Human), UniProt P06241)
# Assay: ADP-Glo Kinase Assay of FYN kinase inhibition
# Type: biochemical
# Conditions: primary screen, initial compounds
# Procedure, shortened: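 GST-tagged full-length FYN A (baculovirus, Sf9) at 3 pg preincubated 30 min RT with compound (10-point 3-fold series from 10 μM) in Tris pH 7.5/MgCl2 buffer. 12-mer tyrosine peptide plus 12.5 pmol ATP added, 90 min RT; ADP measured by ADP-Glo luminescence, IC50 from dose-response.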
# Chain of full-length recombinant human FYN A (P06241 whole entry): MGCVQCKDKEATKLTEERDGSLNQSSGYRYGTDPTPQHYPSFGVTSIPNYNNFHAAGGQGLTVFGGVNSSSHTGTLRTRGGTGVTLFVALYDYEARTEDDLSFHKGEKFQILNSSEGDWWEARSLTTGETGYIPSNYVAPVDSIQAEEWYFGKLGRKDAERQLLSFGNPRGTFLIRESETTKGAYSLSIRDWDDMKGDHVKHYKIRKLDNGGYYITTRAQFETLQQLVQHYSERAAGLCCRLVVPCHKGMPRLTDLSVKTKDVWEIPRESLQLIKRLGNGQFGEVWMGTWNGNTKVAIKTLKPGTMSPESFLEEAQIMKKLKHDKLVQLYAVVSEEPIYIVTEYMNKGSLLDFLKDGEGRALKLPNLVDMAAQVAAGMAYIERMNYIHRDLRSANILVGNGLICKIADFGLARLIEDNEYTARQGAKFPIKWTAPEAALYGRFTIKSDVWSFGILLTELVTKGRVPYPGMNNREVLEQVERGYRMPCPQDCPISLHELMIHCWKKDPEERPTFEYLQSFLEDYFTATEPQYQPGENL
row,Compound,IC50 [nM]
1,"COc1cc(-c2cnc3sc(NCC4CCOCC4)nn23)ccc1O [Compound 543, 2-methoxy-4-[2-(tetrahydropyran-4-ylmethyl-amino)imidazo [2,1-b][1,3,4]thiadiazo-5-yl]phenol]",2160
2,"COc1ccc(-c2cnc3c(NC(C)=O)cc(-c4cccc(NC(C)=O)c4)cn23)cc1OC [Compound 544, N-[3-[8-acetamido-3-(3,4-dimethoxy-phenyl)imidazo [1,2-a]pyridin-6-yl]phenyl] acetamide]",1600
3,"COc1cccc(-c2cc(NC(C)=O)c3ncc(-c4cccc(C(C)=O)c4)n3c2)c1 [Compound 545, N-[3-(3-acetylphenyl)-6-[3-methoxy-phenyl)imidazo [1,2-a]pyridin-8-yl]acetamide]",3050
4,"COc1cncc(-c2cnc3sc(NCc4ccncc4)nn23)c1 [Compound 546, 5-(5-methoxy-3-pyridyl)-N-(4-pyridylmethyl) imidazo[2,1-b][1,3,4] thiadiazol-2-amine]",932
5,"OC1CCC(Nc2nn3c(-c4ccc(F)c(Cl)c4)cnc3s2)CC1 (stereo not shown) [Compound 547, 4-[[5-(3-chloro-4-fluoro-phenyl)imidazo [2,1-b][1,3,4]thiadiazol-2-yl]amino] cyclohexanol]",4060
6,"COc1ccc(-c2cnc3sc(NCCc4ccc(S(N)(=O)=O)cc4)nn23)cc1OC [Compound 548, 4-[2-[[5-(3,4-dimethoxyphenyl)imidazo[2,1-b] [1,3,4]thiadiazol-2-yl]amino]ethyl]benzene-sulfonamide]",5120
7,"COc1ccc(-c2cc(NC(C)=O)c3ncc(-c4cccc(C(C)=O)c4)n3c2)c(OC)c1 [Compound 549, N-[3-(3-acetylphenyl)-6-(2,4-dimethoxy-phenyl)imidazo [1,2-a]pyridin-8-yl]acetamide]",2500
8,"COc1ccc(-c2cnc3sc(NCCc4ccncc4)nn23)cc1OC [Compound 550, 5-(3,4-dimethoxy-phenyl)-N-[2-(4-pyridyl)ethyl]imidazo [2,1-b][1,3,4] thiadiazol-2-amine]",3140
9,"c1cc(CNc2nn3c(-c4ccncc4)cnc3s2)ccn1 [Compound 551, 5-(4-pyridyl)-N-(4-pyridylmethyl) imidazo[2,1-b] [1,3,4]thiadiazol-2-amine]",2650
10,"COc1ccc(-c2cnc3sc(NCCc4ccncc4)nn23)cn1 [Compound 552, 5-(6-methoxy-3-pyridyl)-N-[2-(4-pyridyl)ethyl] imidazo[2,1-b] [1,3,4]thiadiazol-2-amine]",2030
11,"NS(=O)(=O)c1ccc(CCNc2nn3c(-c4cccnc4)cnc3s2)cc1 [Compound 553, 4-[2-[[5-(3-pyridyl)imidazo [2,1-d][1,3,4]thiadiazol-2-yl]amino]ethyl] benzene-sulfonamide]",1880
12,"c1csc(CNc2nn3c(-c4ccc(N5CCOCC5)cc4)cnc3s2)c1 [Compound 554, 5-(4-morpholino-phenyl)-N-(2-thienylmethyl) imidazo[2,1-b] [1,3,4]thiadiazol-2-amine]",3820
13,"COc1ccc(CNc2nn3c(-c4ccc(CO)cc4)cnc3s2)cc1 [Compound 555, [4-[2-[(4-methoxyphenyl)methylamino]imidazo[2,1-b] [1,3,4]thiadiazol-5-yl]phenyl] methanol]",2810
14,"Clc1ccc(-c2cnc3sc(NCc4cccnc4)nn23)cc1 [Compound 556, 5-(4-chlorophenyl)-N-(3-pyridylmethyl) imidazo[2,1-b] [1,3,4]thiadiazol-2-amine]",3660
15,"CC(=O)Nc1cccc(-c2cnc3sc(NCCc4ccncc4)nn23)c1 [Compound 557, N-[3-[2-[2-(4-pyridyl)ethyl-amino]imidazo [2,1-b][1,3,4]thiadiazol-5-yl]phenyl] acetamide]",1320
16,"COc1ccc(-c2cnc3sc(NC4CCC(O)CC4)nn23)cc1OC (stereo not shown) [Compound 572, 4-[[5-(3,4-dimethoxyphenyl)imidazo[2,1-b] [1,3,4]thiadiazol-2-yl]amino] cyclohexanol]",483
17,"c1ccc(CNc2nn3c(-c4cccnc4)cnc3s2)cc1 [Compound 584, N-benzyl-5-(3-pyridyl)imidazo [2,1-b][1,3,4] thiadiazol-2-amine]",839
18,"COc1cncc(-c2cnc3sc(NCc4ccccc4)nn23)c1 [Compound 585, N-benzyl-5-(5-methoxy-3-pyridyl)imidazo [2,1-b][1,3,4] thiadiazol-2-amine]",343

# The next lines start with the values.
row,IC50 [nM],Compound
1,721,"CN(C)C(=O)c1cccc(-c2cnc3sc(NCCc4ccncc4)nn23)c1 [Compound 558, N,N-dimethyl-3-[2-[2-(4-pyridyl)ethyl-amino]imidazo [2,1-b][1,3,4]thiadiazol-5-yl]benzamide]"
2,1780,"COc1ccc(CNc2nn3c(-c4ccc(O)c(OC)c4)cnc3s2)cc1 [Compound 559, 2-methoxy-4-[2-[(4-methoxy-phenyl)methyl-amino]imidazo [2,1-b][1,3,4]thiadiazol-5-yl]phenol]"
3,2940,"COc1ccc(-c2cnc3sc(NCc4cccnc4)nn23)cn1 [Compound 560, 5-(6-methoxy-3-pyridyl)-N-(3-pyridylmethyl) imidazo[2,1-b] [1,3,4]thiadiazol-2-amine]"
4,4820,"Fc1ccc(-c2cnc3sc(NCCN4CCOCC4)nn23)cc1Cl [Compound 561, 5-(3-chloro-4-fluoro-phenyl)-N-(2-morpholino-ethyl)imidazo [2,1-b][1,3,4] thiadiazol-2-amine]"
5,2430,c1cc(CCNc2nn3c(-c4ccncc4)cnc3s2)ccn1 [Compound 562]
6,1610,"COc1ccc(-c2cnc3sc(NC4CCC(O)CC4)nn23)cn1 (stereo not shown) [Compound 563, 4-[[5-(6-methoxy-3-pyridyl)imidazo[2,1-b] [1,3,4]thiadiazol-2-yl]amino] cyclohexanol]"
7,3000,"CC(=O)c1ccc(-c2cnc3sc(NCCN4CCOCC4)nn23)s1 [Compound 564, 1-[5-[2-(2-morpholinoethyl-amino)imidazo [2,1-b][1,3,4]thiadiazol-5-yl]-2-thienyl] ethanone]"
8,1580,"COc1ccccc1-c1cc(NC(C)=O)c2ncc(-c3cccc(C(C)=O)c3)n2c1 [Compound 565, N-[3-(3-acetylphenyl)-6-[2-methoxy-phenyl)imidazo [1,2-a]pyridin-8-yl]acetamide]"
9,2860,"CS(=O)(=O)Nc1cccc(-c2cc(NC=O)c3ncc(-c4ccc(F)c(Cl)c4)n3c2)c1 [Compound 566, N-[3-(3-chloro-4-fluoro-phenyl)-6-[3-(methane-sulfonamido)phenyl]imidazo [1,2-a]pyridin-8-yl]formamide]"
10,3620,"c1csc(CNc2nn3c(-c4ccncc4)cnc3s2)c1 [Compound 567, 5-(4-pyridyl)-N-(2-thienylmethyl) imidazo[2,1-b] [1,3,4]thiadiazol-2-amine]"
11,4330,"CS(=O)(=O)Nc1cccc(-c2cnc3sc(NC4CCCCC4)nn23)c1 [Compound 568, N-[3-[2-(cyclohexylamino)imidazo[2,1-b] [1,3,4]thiadiazol-5-yl]phenyl] methane-sulfonamide]"
12,1130,"CC(C)CNc1nn2c(-c3cccc(C(N)=O)c3)cnc2s1 [Compound 569, 3-[2-(isobutylamino)imidazo[2,1-b] [1,3,4]thiadiazol-5-yl]benzamide]"
13,2920,"OC1CCC(Nc2nn3c(-c4cccc(F)c4)cnc3s2)CC1 (stereo not shown) [Compound 571, 4-[[5-(3-fluorophenyl)imidazo[2,1-b] [1,3,4]thiadiazol-2-yl]amino] cyclohexanol]"
14,1940,"c1cncc(-c2cnc3sc(NCc4cccs4)nn23)c1 [Compound 573, 5-(3-pyridyl)-N-(2-thienylmethyl) imidazo[2,1-b] [1,3,4]thiadiazol-2-amine]"
15,2130,"COc1ccc(-c2cnc3sc(NCc4ccncc4)nn23)cc1OC [Compound 574, 5-(3,4-dimethoxy-phenyl)-N-(4-pyridylmethyl) imidazo[2,1-b] [1,3,4]thiadiazol-2-amine]"
16,5250,"CC(=O)Nc1cc(-c2ccc(N)cc2)cn2c(-c3ccc(F)cc3)cnc12 [Compound 575, N-[6-(4-aminophenyl)-3-(4-fluorophenyl)imidazo[1,2-a]pyridin-8-yl]acetamide]"
17,8090,"Cn1cc(-c2cc(NC=O)c3ncc(-c4ccc(F)cc4)n3c2)cn1 [Compound 576, N-[3-(4-fluorophenyl)-6-(1-methylpyrazol-4-yl)imidazo[1,2-a]pyridin-8-yl]formamide]"
18,1180,"COc1cccc(-n2c(N)c(C(N)=O)c3nc4ccccc4nc32)c1 [Compound 577, 2-amino-1-(3-methoxyphenyl) pyrrolo[3,2-b]quinoxaline-3-carboxamide]"
19,4080,"Fc1cccc(-c2cnc3sc(NC4CCCCC4)nn23)c1 [Compound 578, N-cyclohexyl-5-(3-fluorophenyl) imidazo[2,1-d] [1,3,4]thiadiazol-2-amine]"
20,3160,"c1cncc(-c2cnc3sc(NCc4ccco4)nn23)c1 [Compound 579, N-(2-furylmethyl)-5-(3-pyridyl)imidazo [2,1-a][1,3,4] thiadiazol-2-amine]"
21,5640,"Cn1cc(-c2cnc3sc(NCc4ccco4)nn23)cn1 [Compound 580, N-(2-furylmethyl)-5-(1-methylpyrazol-4-yl)imidazo [2,1-b][1,3,4] thiadiazol-2-amine]"
22,729,"COc1cncc(-c2cnc3sc(NCc4cccs4)nn23)c1 [Compound 581, 5-(5-methoxy-3-pyridyl)-N-(2-thienylmethyl) imidazo[2,1-b] [1,3,4]thiadiazol-2-amine]"
23,2750,"COc1ccc(-c2cnc3sc(NCC(C)C)nn23)cc1OC [Compound 582, 5-(3,4-dimethoxy-phenyl)-N-isobutyl-imidazo [2,1-b][1,3,4] thiadiazol-2-amine]"
24,15100,"CC(=O)c1cccc(-c2cnc3sc(NCC(C)C)nn23)c1 [Compound 583, 1-[3-[2-(isobutyl-amino)imidazo [2,1-a][1,3,4]thiadiazol-5-yl]phenyl] ethanone]"
25,4850,"c1cncc(-c2cnc3sc(NCC4CCOCC4)nn23)c1 [Compound 586, 5-(3-pyridyl)-N-(tetrahydropyran-4-ylmethyl) imidazo[2,1-b] [1,3,4]thiadiazol-2-amine]"
